Key:
GLUT4 = GLUT4 translocation in L6 myotubes after siRNA knockdown of AMPKα, JAK2 or JAK3; type: cell-based, rat; settings: 1 nM quercetin or isorhamnetin
Experimental: (§1) For in vitro cell culture experiments, after serum starvation for 18 h, myotubes were treated with various concentrations of quercetin or isorhamnetin (0.1–10 nM) for 15 min; DMSO (final 0.1%) was used as a vehicle control. As positive controls, 100 nM insulin, 1 mM AICAR, 10 nM leptin, or 100 ng/mL IL-15 were used for insulin, AMPK, JAK2/STAT, or JAK3/STAT signalling pathways, respectively. Cells were treated with insulin or AICAR for 15 min, leptin for 60 min, or IL-15 for 24 h. Whole protein and plasma membrane fractions were prepared from myotubes, as previously described. For in vivo experiment, plasma membrane fraction and tissue lysate of soleus muscle were prepared.
(§2) Translocation of GLUT4 to the plasma membrane, as well as expression and phosphorylation levels of GLUT4-related regulators were estimated by western blot analysis. Briefly, equal amounts of proteins were separated by sodium dodecyl sulfate-polyacrylamide gel electrophoresis (SDS-PAGE). Separated proteins were transferred onto a polyvinylidene fluoride membrane and nonspecific binding sites were blocked using either Blocking One (to detect unphosphorylated proteins) or Blocking One-P (to detect phosphoproteins). The membrane was incubated overnight with an appropriate primary antibody for GLUT4 (1:5000), IR (1:10000), p-IRS1 (1:5000), IRS1 (1:5000), p-PI3K (1:5000), PI3K (1:10000), p-Akt (1:5000), Akt (1:10000), p-AMPKα (1:5000), AMPKα (1:10000), p-ACC (1:5000), ACC (1:10000), p-LKB1 (1:5000), LKB1 (1:10000), p-JAK2 (1:5000), JAK2 (1:5000), p-JAK3 (1:5000), JAK3 (1:10000), p-STAT1 (1:5000), STAT1 (1:10000), p-STAT3 (1:5000), STAT3 (1:10000), p-STAT5 (1:5000), STAT5 (1:10000), or β-actin (1:20000), and subsequently treated with the corresponding horseradish peroxidase-conjugated secondary antibody (1:50000) for 1 h. Specific immune complexes were developed using ImmunoStar® LD and detected with an ATTO Light-Capture II Western Blotting Detection System. Individual band density was calculated by ImageJ and normalized to the control.
Mature myotubes were cultured in antibiotic-free medium and transfected with siRNA at a final concentration of 50 nM using Lipofectamine RNAiMAX transfection reagent according to the manufacturer’s instructions. In brief, mature myotubes were transfected with siRNA in Opti-MEM for 48 h. Subsequently, the medium was changed to fresh Opti-MEM and cells were treated with the indicated concentrations of quercetin or isorhamnetin.

AMPK = test: Phosphorylation of AMPK in L6 myotubes (western blot); type: cell-based, rat
Experimental: In vitro cultured cell experiments were conducted according to a previously described protocol[6],[14]. Briefly, L6 myoblasts derived from rat skeletal muscle and of less than 40 passages were maintained in MEM supplemented with 10% foetal bovine serum (FBS) and antibiotics (100 U/ml penicillin and 100 μg/ml streptomycin) at 37 °C under a humidified atmosphere condition of 5% CO2 and 95% air. In each experiment, cells (2.2 × 10^4 cells/ml) were seeded into 96-well plates or 60-mm dishes for induction of differentiation into mature myotubes. After reaching confluence, cells were supplemented with differentiation medium containing 2% FBS and the same antibiotics for 7 days. Cells were used for each experiment after morphological analysis of differentiation status using phase-contrast microscopy. To explore the contribution of CaMKKβ or intracellular-free calcium ions in quercetin- and isorhamnetin-stimulated GLUT4 translocation, L6 cells were incubated in the presence or absence of 10 μM STO-609 and 25 μM […], respectively, for 30 min prior to treatment with either quercetin or isorhamnetin.
as §1, §2
42 after morphological analysis of differentiation status using phase-contrast microscopy.
43 Preparation of whole protein and plasma membrane fractions After serum starvation
44 for 18 h, myotubes were treated with various concentrations of quercetin or isorhamnetin (1–
45 10 μM) for 15 min; DMSO (final 0.1%) was used as a vehicle control. As positive controls, […]

NC(=O)c1ncn([C@@H]2O[C@H](CO)[C@@H](O)[C@H]2O)c1N [AICAR, 5-aminoimidazole-4-carboxyamide ribonucleoside, reference compound]
compound-induced GLUT4 translocation after siRNA for AMPK (GLUT4; siAMPKα 50 nM 48 h, 1 mM AICAR): almost completely abolished

O=C(O)c1ccc2c3c1cccc3c(=O)n1c3ccccc3nc21 [STO-609, reference compound]
effect on quercetin-induced AMPK phosphorylation (AMPK; 10 μM STO-609 for 30 min prior to 1 nM quercetin): abolished

leptin: positive control for JAK2/STAT signalling pathway
compound-induced GLUT4 translocation after siRNA for JAK2 (GLUT4; siJAK2 50 nM 48 h, 10 nM leptin): abolished

CC(=O)OCOC(=O)CN(CC(=O)OCOC(C)=O)c1ccccc1OCCOc1ccccc1N(CC(=O)OCOC(C)=O)CC(=O)OCOC(C)=O [BAPTA-AM, 1,2-Bis (2-aminophenoxy) ethane-N,N,N′,N′-tetraacetic acid tetrakis (acetoxymethyl ester), reference compound]
effect on quercetin-induced AMPK phosphorylation (AMPK; 25 μM BAPTA-AM for 30 min prior to 1 nM quercetin): did not affect
